From the supplement of paper PMC11208160

assay: recombinant UMI read abundance after kanamycin selection (control-corrected) (log10(CPM+1)); higher = more efficient recombination; extreme values may be limits of the assay; sequences stand for … in AGTGCAGAGAAAATCGGCCAGTTTTCTCTGCCTGCAGTCCGCATGCCGTGGGACCCCTTGGGTTCTAACCTGTTGCCTAGATTTATGCAGCGGACTGCCTTTCTCCCAAAGTGATAAACCGG…AGGTTGGTTTCACT; site = the 11-nt donor
Method: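 Pooled E. coli donor-specificity screen for the IS621 bridge recombinase. Each library member carries a reprogrammed 11-nt donor and a full-length LE bridge RNA expressed in cis from the natural promoter, with a paired donor-binding loop (8-nt LDG + 4-nt RDG) and a target-binding loop fixed to T5. It is co-electroporated with a T5 target plasmid; recombinase is induced with 0.07 mM IPTG and recombinants are selected on kanamycin. UMIs are counted as CPM, averaged over two biological replicates and corrected by the unselected control. Molecule = full bridge RNA written as DNA, built from the T5 scaffold: LDG = donor specificity nt 1-8, RDG = reverse complement of nt 8-11.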
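Also: IS621 bridge recombinase in Escherichia coli cells against a fixed T5 target plasmid.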

Row | Sequence | recombinant UMI read abundance (log10)
1 | AAGCCTTCATGGACCGGTTTTCCCGGTAATCCGTATTTGGT (site AAGCCTTCTAC) | 0.585
2 | AAGCCTTCATGGACCGGTTTTCCCGGTAATCCGTATTTGGT (site CAGCCTTCTAC) | 0.357
3 | AAGCCTTCATGGACCGGTTTTCCCGGTAATCCGTATTTGGT (site GAGCCTTCTAC) | 0.134
4 | AAGCCTTCATGGACCGGTTTTCCCGGTAATCCGTATTTGGT (site TAGCCTTCTAC) | 0.12
5 | AAGCGTCCATGGACCGGTTTTCCCGGTAATCCGTATTTGCG (site AAGCGTCCTCG) | 1.06
6 | AAGCGTTCATGGACCGGTTTTCCCGGTAATCCGTATTTGTT (site AAGCGTTCTAA) | 1.52
7 | AAGCTCACATGGACCGGTTTTCCCGGTAATCCGTATTTGAT (site AAGCTCACTAT) | 1.97
8 | AAGCTCACATGGACCGGTTTTCCCGGTAATCCGTATTTGAT (site CAGCTCACTAT) | 1.5
9 | AAGCTCACATGGACCGGTTTTCCCGGTAATCCGTATTTGAT (site GAGCTCACTAT) | 0.291
10 | AAGCTCACATGGACCGGTTTTCCCGGTAATCCGTATTTGAT (site TAGCTCACTAT) | 1.55
11 | AAGGACCCATGGACCGGTTTTCCCGGTAATCCGTATTTGAA (site AAGGACCCTTT) | 1.1
12 | AAGGACGCATGGACCGGTTTTCCCGGTAATCCGTATTTGCC (site AAGGACGCTGG) | 2.85
13 | AAGGAGCCATGGACCGGTTTTCCCGGTAATCCGTATTTGGA (site AAGGAGCCTTC) | 0.02
14 | AAGGCGACATGGACCGGTTTTCCCGGTAATCCGTATTTGCT (site AAGGCGACTAG) | 2.18
15 | AAGGGACCATGGACCGGTTTTCCCGGTAATCCGTATTTGGT (site AAGGGACCTAC) | 0.00499
16 | AAGGGGCCATGGACCGGTTTTCCCGGTAATCCGTATTTGTG (site AAGGGGCCTCA) | 0.00547
17 | AAGGGTCCATGGACCGGTTTTCCCGGTAATCCGTATTTGAG (site AAGGGTCCTCT) | 0.405
18 | AAGGTGCCATGGACCGGTTTTCCCGGTAATCCGTATTTGAT (site AAGGTGCCTAT) | 0.438
19 | AAGTAAGCATGGACCGGTTTTCCCGGTAATCCGTATTTGGA (site AAGTAAGCTTC) | 1.78
20 | AAGTATGCATGGACCGGTTTTCCCGGTAATCCGTATTTGGA (site AAATATGCTTC) | 0.814
21 | AAGTATGCATGGACCGGTTTTCCCGGTAATCCGTATTTGGA (site AACTATGCTTC) | 1.43
22 | AAGTATGCATGGACCGGTTTTCCCGGTAATCCGTATTTGGA (site AAGTATGCTTC) | 1.96
23 | AAGTATGCATGGACCGGTTTTCCCGGTAATCCGTATTTGGA (site AATTATGCTTC) | 1.04
24 | AAGTCAACATGGACCGGTTTTCCCGGTAATCCGTATTTGTG (site AAGTCAACTCA) | 0.011

Row | Sequence | recombinant UMI read abundance (log10)
25 | AAGTCCACATGGACCGGTTTTCCCGGTAATCCGTATTTGCC (site AAGTCCACTGG) | 1.61
26 | AAGTCCGCATGGACCGGTTTTCCCGGTAATCCGTATTTGAT (site AAGTCCGCTAT) | 1.53
27 | AAGTCGACATGGACCGGTTTTCCCGGTAATCCGTATTTGGG (site AAGTCGACTCC) | 0.0303
28 | AAGTCGACATGGACCGGTTTTCCCGGTAATCCGTATTTGGG (site CAGTCGACTCC) | 0.0471
29 | AAGTCGACATGGACCGGTTTTCCCGGTAATCCGTATTTGGG (site GAGTCGACTCC) | 0.0282
30 | AAGTCGACATGGACCGGTTTTCCCGGTAATCCGTATTTGGG (site TAGTCGACTCC) | 0.0179
31 | AAGTCTACATGGACCGGTTTTCCCGGTAATCCGTATTTGTA (site AAGTCTACTTA) | 0.646
32 | AAGTTCCCATGGACCGGTTTTCCCGGTAATCCGTATTTGTG (site AAGTTCCCTCA) | 0.111
33 | AAGTTCCCATGGACCGGTTTTCCCGGTAATCCGTATTTGTG (site ACGTTCCCTCA) | 0
34 | AAGTTCCCATGGACCGGTTTTCCCGGTAATCCGTATTTGTG (site AGGTTCCCTCA) | 0.0112
35 | AAGTTCCCATGGACCGGTTTTCCCGGTAATCCGTATTTGTG (site ATGTTCCCTCA) | 0.0155
36 | AAGTTCTCATGGACCGGTTTTCCCGGTAATCCGTATTTGCC (site AAGTTCTCTGG) | 2.31
37 | AAGTTGGCATGGACCGGTTTTCCCGGTAATCCGTATTTGCA (site AAGTTGGCTTG) | 2.05
38 | AAGTTTACATGGACCGGTTTTCCCGGTAATCCGTATTTGAC (site AAGTTTACTGT) | 1.97
39 | AATAAGACATGGACCGGTTTTCCCGGTAATCCGTATTTGAA (site AATAAGACTTT) | 1.86
40 | AATAGAACATGGACCGGTTTTCCCGGTAATCCGTATTTGAG (site AATAGAACTCT) | 2
41 | AATAGAACATGGACCGGTTTTCCCGGTAATCCGTATTTGAG (site ACTAGAACTCT) | 1.6
42 | AATAGAACATGGACCGGTTTTCCCGGTAATCCGTATTTGAG (site AGTAGAACTCT) | 0.412
43 | AATAGAACATGGACCGGTTTTCCCGGTAATCCGTATTTGAG (site ATTAGAACTCT) | 0.329
44 | AATAGGACATGGACCGGTTTTCCCGGTAATCCGTATTTGCG (site AATAGGACTCG) | 1.97
45 | AATAGTGCATGGACCGGTTTTCCCGGTAATCCGTATTTGGT (site AATAGTGCTAC) | 1.23
46 | AATAGTGCATGGACCGGTTTTCCCGGTAATCCGTATTTGGT (site ACTAGTGCTAC) | 0.687
47 | AATAGTGCATGGACCGGTTTTCCCGGTAATCCGTATTTGGT (site AGTAGTGCTAC) | 0.602
48 | AATAGTGCATGGACCGGTTTTCCCGGTAATCCGTATTTGGT (site ATTAGTGCTAC) | 0.53

Row | Sequence | recombinant UMI read abundance (log10)
49 | AATATAACATGGACCGGTTTTCCCGGTAATCCGTATTTGCT (site AATATAACTAG) | 1.99
50 | AATATAACATGGACCGGTTTTCCCGGTAATCCGTATTTGCT (site AATCTAACTAG) | 0.615
51 | AATATAACATGGACCGGTTTTCCCGGTAATCCGTATTTGCT (site AATGTAACTAG) | 1.47
52 | AATATAACATGGACCGGTTTTCCCGGTAATCCGTATTTGCT (site AATTTAACTAG) | 0.0427
53 | AATCATGCATGGACCGGTTTTCCCGGTAATCCGTATTTGGA (site AATAATGCTTC) | 0.666
54 | AATCATGCATGGACCGGTTTTCCCGGTAATCCGTATTTGGA (site AATCATGCTTC) | 0.584
55 | AATCATGCATGGACCGGTTTTCCCGGTAATCCGTATTTGGA (site AATGATGCTTC) | 0.351
56 | AATCATGCATGGACCGGTTTTCCCGGTAATCCGTATTTGGA (site AATTATGCTTC) | 0.636
57 | AATCCATCATGGACCGGTTTTCCCGGTAATCCGTATTTGTA (site AATCCATCTTA) | 1.06
58 | AATCTCACATGGACCGGTTTTCCCGGTAATCCGTATTTGGA (site AATCTCACTTC) | 0.341
59 | AATCTGGCATGGACCGGTTTTCCCGGTAATCCGTATTTGTA (site AATCTGGCTTA) | 0.472
60 | AATGAGACATGGACCGGTTTTCCCGGTAATCCGTATTTGGT (site AATGAGACTAC) | 1.58
61 | AATGAGACATGGACCGGTTTTCCCGGTAATCCGTATTTGGT (site ACTGAGACTAC) | 0.724
62 | AATGAGACATGGACCGGTTTTCCCGGTAATCCGTATTTGGT (site AGTGAGACTAC) | 1.41
63 | AATGAGACATGGACCGGTTTTCCCGGTAATCCGTATTTGGT (site ATTGAGACTAC) | 0.678
64 | AATGATGCATGGACCGGTTTTCCCGGTAATCCGTATTTGGA (site AATAATGCTTC) | 1.08
65 | AATGATGCATGGACCGGTTTTCCCGGTAATCCGTATTTGGA (site AATCATGCTTC) | 1.01
66 | AATGATGCATGGACCGGTTTTCCCGGTAATCCGTATTTGGA (site AATGATGCTTC) | 1.06
67 | AATGATGCATGGACCGGTTTTCCCGGTAATCCGTATTTGGA (site AATTATGCTTC) | 0.561
68 | AATGCAACATGGACCGGTTTTCCCGGTAATCCGTATTTGCT (site AATGAAACTAG) | 0
69 | AATGCAACATGGACCGGTTTTCCCGGTAATCCGTATTTGCT (site AATGCAACTAG) | 0.00461
70 | AATGCAACATGGACCGGTTTTCCCGGTAATCCGTATTTGCT (site AATGGAACTAG) | 0
71 | AATGCAACATGGACCGGTTTTCCCGGTAATCCGTATTTGCT (site AATGTAACTAG) | 0
72 | AATGCAGCATGGACCGGTTTTCCCGGTAATCCGTATTTGGG (site AATGCAGCTCC) | 0.00829
